Data set [1] in a line: Pharmacokinetics in the vitreous body after intravitreal injection. In kind it is in vivo, Sprague Dawley (SD) male rats. On the procedure: Three groups consisted of a hyaluronic acid (HA) test group, an anti-Flt1 peptide (GGNQWFI) (SEQ ID NO: 3) test group, and a test group of the hyaluronic acid-peptide conjugate with a lower peptide content as prepared from Preparation Example 3 (HA-GGNQWFI). The anti-Flt1 peptide sample and the hyaluronic acid-peptide conjugate sample were made to have an identical peptide concentration of 5 mg/ml. 10 μL of each sample solution was injected into the vitroeus body, which was sampled in 6 hours, 1 day, 3 days, 7 days, 10 days, and 14 days and stored at −20° C. until analysis. The concentration of the anti-Flt1 peptide in the vitreous body was measured with fluorescence analysis. Specifically, the vitreous body was disintegrated by using 200 μL of RIPA buffer, and then subjected to centrifugation under 14,000 g at 4° C. for 10 minutes to provide a supernatant solution. By using a spectrofluorometer (Cary Eclipse Fluorescence Spectrophotometer, Varian, Australia), the photoluminescence of each sample was measured at an excitation wave length of 280 nm and an emission wavelength of 350 nm. The vitreous body of the SD rat that was not treated at all was used as a blank control.

The test system of data set [2] is vascular hyperpermeability due to diabetic retinopathy. In words: Vascular hyperpermeability due to diabetic retinopathy, streptozotocin, dextran-FITC fluorescence (Experimental Example 10). The class given is in vivo, Sprague Dawley (SD) male rats. The following applies: hyaluronic acid test group = 100%; intravitreal 10 μL, peptide 5 mg/ml; four weeks after streptozotocin. The source says:
Four groups consisted of a hyaluronic acid test group, an anti-Flt1 peptide (GGNQWFI) (SEQ ID NO: 3) test group, a test group of the hyaluronic acid-peptide conjugate with a lower peptide content (with 20 peptides being conjugated per one molecule of HA-TBA) as prepared from Preparation Example 3 (HA-GGNQWFI), and a test group of the hyaluronic acid-peptide conjugate with a higher peptide content (with 28 peptides being conjugated per one molecule of HA-TBA) as prepared from Preparation Example 3(HA-GGNQWFI(2)). The anti-Flt1 peptide sample and the hyaluronic acid-peptide conjugate samples were made to have an identical peptide concentration of 5 mg/ml. First, each rat was injected intraperitonially with 60 mg/kg of streptozotocin dissolved in 10 mM citrate buffer at pH 4.5 in order for diabetes to be induced. In three days after the injection of streptozotocin, the rat was determined to develop diabetes when its serum concentration of glucose was at least 300 mg/dL. In a week after the injection of streptozotocin, 10 μL of each sample solution was injected into the vitroeus body. In four weeks after the injection of streptozotocin, the effect of inhibiting vascular hyperpermeability due to diabetic retinopathy was determined by the fluorescence microscopic analysis with using dextran-FITC (MW=10,000) in the same manner as set forth in Experimental Example 7-1.

The subject of data set [3] is corneal neovascularization. Put plainly: Corneal neovascularization after silver nitrate cauterization (Experimental Example 8). In kind it is in vivo, Albino Sprague Dawley male rats. The note with it: rat cornea, subconjunctival 20 μL; Avastin 10 mg/ml, peptide and conjugate […] peptide; NV control 90.8±5%. On the procedure:
All animal tests including this experiment were conducted in compliance with the guidelines of the Catholic University of Korea and the principles of laboratory animal care; NIH publication No. 85-23 revised in 1985.
The rat was put under anesthesia by an intra-peritoneal injection of a mixed solution of 20 mg/kg of ketamine hydrochloride and 2.5 mg/kg of xylazine hydrochloride. […] In 3 days after the cauterization, subconjunctival administration was conducted with 20 μL of each of 4 sample solutions (a normal control group, NV control (neovascularization control: a control group wherein angiogenesis was made to occur and no drug was treated thereon), a solution comprising Avastin (Roche) dissolved in PBS at a concentration of 10 mg/ml, a solution comprising anti-Flt1 peptide (GGNQWFI) (SEQ ID NO: 3) dissolved in PBS at a concentration of 2.5 mg/ml, and a solution comprising the hyaluronic acid-peptide conjugate with a lower peptide concentration obtained from Preparation Example 3 as dissolved in PBS at a concentration of 2.5 mg/ml based on the content of anti-Flt1 peptide). […] The obtained images were subjected to quantitative analysis with Image J program (Ver. 1.38, National Institute of Health, MD).

Data set [4] is described as follows: Appearance / water solubility in aqueous solution. In kind it is physicochemical. The note with it: PBS, final peptide concentration 1.25 mg/mL. On the procedure:
The anti-Flt1 peptide (GGNQWFI) (SEQ ID NO: 3) and the hyaluronic acid-peptide conjugate with a lower peptide content as prepared from Preparation Example 3 were dissolved in 4004, of PBS to have a final peptide concentration of 1.25 mg/mL, respectively. The amount of the anti-Flt1 peptide contained in each solution was measured with a changeable UV transilluminator (DUT-260, Core Bio System, Korea) by using 312 nm of light source. The formation of the hyaluronic acid-peptide micelle in an aqueous solution was confirmed by using a transmission electron microscope (TEM) (Hitachi, Tokyo, Japan). For a TEM analysis, 10 μL of the hyaluronic acid-peptide conjugate solution was dropped onto a 300 mesh copper TEM grid with a carbon film and then was dried. The average particle size was calculated out from the diameters obtained from the images of 30 particles.

The mark [5] stands for this setting: rat, single intravitreal 10 μL, peptide 5 mg/ml.
Setting [6] is: male, Sprague Dawley (SD), vitreous body, 50 µg, rat, single intravitreal 10 μL, peptide 5 mg/ml.

Ends that are not written are not given here.

As for “HA-GGNQWFI: hyaluronic acid (MW 100 kDa) conjugated with GGNQWFI, 20 peptides per one molecule of HA-TBA (also: conjugated to hyaluronic acid, about 20 peptides per HA)”, in data set [1] (setting [5]), the “Cmax in the vitreous body” value was 1600 ± 600 µg/mL, the “Tmax in the vitreous body” value came out at 6 h and the “time for which the concentration in the vitreous body was maintained above base line” value is on record as “at least 14 days”. Moreover, the “AUC / bioavailability (AUC/dose) in the vitreous body” value in data set [1] (same dose, compared with anti-Flt1 peptide) is listed as “higher AUC than that of the anti-Flt1 peptide”. The “average intensity of the fluorescence of retina (dextran-FITC)” value in data set [2] came to 58.4±7.8%. Besides, the “average ratio of the neovascular area” value in data set [3] stood at 17.4±5.6%. Moreover, the “appearance in the aqueous solution (water solubility)” value in data set [4] is reported as “became clear”.
As to GGNQWFI [anti-Flt1 peptide, GGNQWFI], in data set [1] (setting [6]), the Cmax worked out at 800 ± 700 µg/mL and the Tmax is 24 h. Also, the “time for which the concentration in the vitreous body was maintained above base line” value in data set [1] (setting [5]) is less than 10 days. In data set [2], the “average intensity of the fluorescence of retina (dextran-FITC)” value worked out at 79.0±9.2%. In addition, the “average ratio of the neovascular area” value in data set [3] is 27±5.7%. Moreover, in data set [4], the “appearance in the aqueous solution (water solubility)” value is given as “became turbid”.

The Cmax is the highest concentration seen after dosing. What is called Tmax is the time from dosing to the highest level.

Source of the values: patent publication US8895069B2, “Drug delivery system using hyaluronic acid-peptide conjugate micelle” (Postech Academy-Industry Foundation, priority 2011, dated 2014).
